Laboratory results from ChEMBL document CHEMBL5728596, “Inhibitors of cysteine proteases and methods of use thereof” (2021).

Assay: Evaluation of Antiviral Activity of Compounds Against Human Coronavirus (HCov) 229E and OC43 in the Cytopathic Effect (CPE) Assays: Compounds were assayed using standard methods against multiple coronaviral strains, including HCoV 229E and OC43 strains. […] The antiviral activity of compounds was calculated based on the protection of the virus-induced CPE at each concentration normalized by the virus control.

SMILES: N#C[C@H](C[C@@H]1CCCNC1=O)NC(=O)[C@@H]1CC2(CCCCC2)CN1C(=O)c1cc2ccc(Cl)cc2[nH]1 (single isomer, unassigned)
- EC50: < 22 µM

SMILES: CC(C)C[C@H](NC(=O)c1cc2c(OC(F)F)cccc2[nH]1)C(=O)N[C@H](C#N)C[C@@H]1CCNC1=O
- EC50: < 22 µM

SMILES: COc1cccc2[nH]c(C(=O)N[C@@H](CC(C)C)C(=O)N[C@@H](C[C@@H]3CCNC3=O)C(C#N)Nc3ccccc3)cc12 (stereo partly drawn)
- EC50: 6 µM

SMILES: CC(C)C[C@H](NC(=O)c1nc2ncccc2[nH]1)C(=O)N[C@H](C#N)C[C@@H]1CCNC1=O
- EC50: 6 µM

SMILES: COc1cccc2[nH]c(C(=O)N[C@@H](CC(C)C)C(=O)N[C@@H](C[C@@H]3CCNC3=O)[C@H](C#N)N3CCCC3)cc12 (single isomer, unassigned)
- EC50: < 22 µM

SMILES: COc1cccc2[nH]c(C(=O)N[C@@H](CC(C)(C)C)C(=O)N[C@H](C#N)C[C@@H]3CCCNC3=O)cc12
- EC50: < 22 µM

SMILES: N#C[C@H](C[C@@H]1CCNC1=O)NC(=O)[C@H](CC1CC1)NC(=O)c1cc2cccc(Cl)c2[nH]1
- EC50: < 22 µM

SMILES: COc1cccc2[nH]c(C(=O)N[C@@H](CC(C)C)C(=O)N[C@H](C#N)C[C@@H]3CCNC3=O)cc12
- EC50: < 22 µM

SMILES: COc1cccc2[nH]c(C(=O)N3C[C@@H](C45CC(C4)C5)C[C@H]3C(=O)N[C@H](C#N)C[C@@H]3CCNC3=O)cc12 (single isomer, unassigned)
- EC50: < 22 µM

SMILES: COc1cccc2[nH]c(C(=O)N[C@@H](CC(C)C)C(=O)N[C@H](/C=C/S(C)(=O)=O)C[C@@H]3CCNC3=O)cc12
- EC50: > 30 µM

SMILES: COc1cccc2[nH]c(C(=O)N3C[C@H](SC)C[C@H]3C(=O)N[C@H](C#N)C[C@@H]3CCNC3=O)cc12
- EC50: 6 µM

SMILES: COc1cccc2[nH]c(C(=O)N[C@@H](CC(C)C)C(=O)N[C@@H](C[C@@H]3CCNC3=O)C(C#N)NCC(=O)O)cc12 (stereo partly drawn)
- EC50: < 22 µM

SMILES: COc1cccc2[nH]c(C(=O)N[C@@H](CC3CCC3)C(=O)N[C@H](C#N)C[C@@H]3CCNC3=O)cc12
- EC50: < 22 µM

SMILES: COc1cccc2[nH]c(C(=O)N[C@@H](CC(C)C)C(=O)NC(C#N)c3cccnc3)cc12 (stereo partly drawn)
- EC50: 6 µM

SMILES: COc1cccc2[nH]c(C(=O)N3C[C@H](C45CC(C4)C5)C[C@H]3C(=O)N[C@H](C#N)C[C@@H]3CCNC3=O)cc12 (single isomer, unassigned)
- EC50: < 22 µM

SMILES: N#C[C@H](C[C@@H]1CCCNC1=O)NC(=O)C1CC2(CN1C(=O)c1cc3cccc(Cl)c3[nH]1)CC(F)(F)C2 (single isomer, unassigned)
- EC50: < 22 µM

SMILES: COc1cccc2[nH]c(C(=O)N[C@@H](CC(C)C)C(=O)N[C@@H](C[C@@H]3CCNC3=O)[C@@H](C#N)N3CCCC3)cc12 (single isomer, unassigned)
- EC50: < 22 µM

SMILES: N#C[C@H](C[C@@H]1CCCNC1=O)NC(=O)C1CC2(CCCCC2)CN1C(=O)c1cc2cccc(Cl)c2[nH]1 (single isomer, unassigned; isomer 1)
- EC50: < 22 µM

SMILES: COc1cccc2[nH]c(C(=O)N3C[C@H](OC)C[C@H]3C(=O)N[C@H](C#N)C[C@@H]3CCNC3=O)cc12
- EC50: < 22 µM

SMILES: COc1cccc2[nH]c(C(=O)N[C@@H](CC(C)(F)F)C(=O)N[C@H](C#N)C[C@@H]3CCNC3=O)cc12 (single isomer, unassigned)
- EC50: < 22 µM

SMILES: N#C[C@H](C[C@@H]1CCNC1=O)NC(=O)[C@H](CC1CC1)NC(=O)c1cc2cc(Cl)ccc2[nH]1
- EC50: < 22 µM

SMILES: CCCOc1cccc2[nH]c(C(=O)N[C@@H](CC(C)C)C(=O)N[C@H](C#N)C[C@@H]3CCNC3=O)cc12
- EC50: < 22 µM

SMILES: CCCN1C(=N)C([C@H](C[C@@H]2CCNC2=O)NC(=O)[C@H](CC(C)C)NC(=O)c2cc3c(OC)cccc3[nH]2)OC1=O (stereo partly drawn)
- EC50: > 30 µM
